Laboratory results reported in US5847092A (Zambon Group S.p.A., priority 1994, dated 1998).
≈ marks a conversion by molar mass, not a printed value. Read-outs that look alike come from different tables or passages of the source.

Key:
[1] = system: Enterococcus faecalis ATCC 29212; test: In vitro antibacterial activity, MIC, broth microdilution; format: cell-based; conditions: Enterococcus faecalis, ATCC29212; E. faecalis ATCC 29212; MHB; 37° C., 18 hours; read-out: minimum inhibiting concentration MIC
Method: (§1) a) In vitro antibacterial activity The determination of the minimum inhibiting concentrations (MIC), with respect to Gram-positive and Gram-negative bacteria was carried out through the micromethod of gradual broth dilution in double series [National Committee for Clinical Laboratory Standards, 1990; Methods for dilution antimicrobial susceptibility tests for bacteria that grow aerobically; Approved standards […], Villanova, Pa.], by using Mueller Hinton Broth (MHB) as a culture medium. In the case of […] bacteria, horse serum at 5% (Streptococcus pneumoniae and Streptococcus pyogenes) was added to the medium. Roxithromycin and Clarithromycin [The Merck Index, XI Ed., No. 8253 and 2340, respectively] were used as reference macrolides. MIC, expressed as (μg/ml), were determined after incubation of the microplates at 37° C. for 18 hours, evaluating the lowest antibiotic concentration enabling the inhibition of bacterial development.

[2] = system: Escherichia coli ATCC 25922; test: as above; format: cell-based; conditions: Escherichia coli, ATCC25922; E. coli ATCC 25922; MHB; 37° C., 18 hours; read-out: minimum inhibiting concentration MIC
Method: as §1

[3] = system: Klebsiella pneumoniae ZC 2; test: as above; format: cell-based; conditions: Klebsiella pneumoniae, ZC2; K. pneumoniae ZC 2; MHB; 37° C., 18 hours; read-out: minimum inhibiting concentration MIC
Method: as §1

[4] = system: Staphylococcus aureus PV 14; test: as above; format: cell-based; conditions: Staphylococcus aureus, PV14; S. aureus PV 14; MHB; 37° C., 18 hours; read-out: minimum inhibiting concentration MIC
Method: as §1

[5] = system: Streptococcus pneumoniae BS 3; test: as above; format: cell-based; conditions: Streptococcus pneumoniae, BS3; S. pneumoniae BS 3; MHB + 5% horse serum; 37° C., 18 hours; read-out: minimum inhibiting concentration MIC
Method: as §1

[6] = system: Streptococcus pneumoniae BS 4; test: as above; format: cell-based; conditions: Streptococcus pneumoniae, BS4; S. pneumoniae BS 4; MHB + 5% horse serum; 37° C., 18 hours; read-out: minimum inhibiting concentration MIC
Method: as §1

[7] = system: Streptococcus pyogenes A 26; test: as above; format: cell-based; conditions: Streptococcus pyogenes, A26; S. pyogenes A 26; MHB + 5% horse serum; 37° C., 18 hours; read-out: minimum inhibiting concentration MIC
Method: as §1

[8] = system: Streptococcus pyogenes C 203; test: as above; format: cell-based; conditions: Streptococcus pyogenes, C203; S. pyogenes C 203; MHB + 5% horse serum; 37° C., 18 hours; read-out: minimum inhibiting concentration MIC
Method: as §1

[9] = system: Streptococcus pyogenes C 203; test: In vivo antibacterial activity, experimental pulmonary infection in mouse; conditions: Streptococcus pyogenes, C203, ip, 240 h, intraperitoneal single dose, read-out: average protecting dose PD50
Method: The in vivo antibacterial activity of the compounds of formula (I), expressed as average protecting dose PD50 (mg/Kg), was evaluated by means of experimental pulmonary infection induced in mouse by Streptococcus pyogenes (example 23).
b) In vivo antibacterial activity
The therapeutical effectiveness, expressed as average protecting dose (PD50), of the considered compounds of formula (I) was evaluated by experimental pulmonary infection induced in mouse by Streptococcus pyogenesC 203.
Charles River albin mice (strain CD 1), of body weight comprised between 23-35 g, stabulated in groups of 6 for cage and normo-feeded with standard diet and water ad libitum were used. A suspension of S. pyogenes C 203 (corresponding about to 10^8 UFC) in tryptose broth (0.05 ml) was intranasally administered to each mouse anesthesized with a mixture of ethyl ether and chloroform.
The compounds under examination were intraperitoneally administered as a single dose, in 0.2% Tween suspension, 24 hours before or 1 hour after the infection.
Mice mortality observation was prolonged up to 10 days from the infection.
PD50 calculation, expressed as (mg/Kg), was carried out through the analysis of probit.
In vivo antibacterial activity, expressed as average protecting dose PD50 (mg/Kg), 24 hours before and 1 hour after the experimental pulmonary infection induced in mouse by Streptococcus pyogenes C 203, of the compounds 4, 10, 16-19, 21, 23, 26-27, 29-30, 33-35 and 38 and of the reference compounds Roxithromycin and Clarithromycin.

[10] = literature; cited from earlier work
[11] = literature; cited from earlier work; remark: listed apart in the source
[12] = system: Gram-positive and Gram-negative bacteria; conditions: literature; cited from earlier work

Compound | MIC [1] [µg/mL] | MIC [2] [µg/mL] | MIC [3] [µg/mL] | MIC [4] [µg/mL] | MIC [5] [µg/mL] | MIC [6] [µg/mL] | MIC [7] [µg/mL] | MIC [8] [µg/mL] | ED50 ([9]; 1 hour after infection) [mg/kg] | ED50 ([9]; 24 hours before infection) [mg/kg] | stability to the acids (in words) [10] | pharmacokinetic properties / bioavailability (in words) [11] | spectrum of activity in vitro (in words) [12]
CC[C@H]1OC(=O)[C@H](C)[C@@H](O[C@H]2C[C@@](C)(OC)[C@@H](O)[C@H](C)O2)[C@H](C)[C@@H](O[C@@H]2O[C@H](C)C[C@H](N(C)C)[C@H]2O)[C@](C)(O)C[C@@H](C)/C(=N\OCCNCCCCCCNCc2ccc(C(F)(F)F)cc2)[C@H](C)[C@@H](O)[C@]1(C)O [Compound 23, Erythromycin A (E)-9-[0-[2-[6-[(4-trifluoromethylphenyl)methylamino]hexylamino]ethyl]oxime]] | 2 (≈ 1.91 µM) | 1 (≈ 0.953 µM) | 4 (≈ 3.81 µM) | 1 (≈ 0.953 µM) | 0.0156 | 0.0078 | 0.0156 | 0.0156 | 1.46 |  |  |  | 
CCCCOc1ccc(CNCCCCCCNCCO/N=C2\[C@H](C)C[C@@](C)(O)[C@H](O[C@@H]3O[C@H](C)C[C@H](N(C)C)[C@H]3O)[C@@H](C)[C@H](O[C@H]3C[C@@](C)(OC)[C@@H](O)[C@H](C)O3)[C@@H](C)C(=O)O[C@H](CC)[C@@](C)(O)[C@H](O)[C@H]2C)cc1 [Compound 26, Erythromycin A (E)-9-[0-[2-[6-[(4-n.butoxyphenyl)methylamino]hexylamino]ethyl]oxime]] | 1 (≈ 0.949 µM) | 1 (≈ 0.949 µM) | 2 (≈ 1.9 µM) | 0.25 (≈ 0.237 µM) | 0.0156 | 0.0156 | 0.0312 | 0.0078 | 6.11 | 6.11 |  |  | 
CC[C@H]1OC(=O)[C@H](C)[C@@H](O[C@H]2C[C@@](C)(OC)[C@@H](O)[C@H](C)O2)[C@H](C)[C@@H](O[C@@H]2O[C@H](C)C[C@H](N(C)C)[C@H]2O)[C@](C)(O)C[C@@H](C)/C(=N\OCCNCCCCCCNCc2cccc(Oc3ccccc3)c2)[C@H](C)[C@@H](O)[C@]1(C)O [Compound 27, Erythromycin A (E)-9-[0-[2-[6-[(3-phenoxyphenyl)methylamino]hexylamino]ethyl]oxime]] | 1 (≈ 0.932 µM) | 1 (≈ 0.932 µM) | 2 (≈ 1.86 µM) | 0.5 (≈ 0.466 µM) | 0.0078 | 0.0078 | 0.0156 | 0.0078 | 15.6 | 15.6 |  |  | 
CC[C@H]1OC(=O)[C@H](C)[C@@H](O[C@H]2C[C@@](C)(OC)[C@@H](O)[C@H](C)O2)[C@H](C)[C@@H](O[C@@H]2O[C@H](C)C[C@H](N(C)C)[C@H]2O)[C@](C)(O)C[C@@H](C)/C(=N\OCCNCCCCCCNCc2ccc(Oc3ccccc3)cc2)[C@H](C)[C@@H](O)[C@]1(C)O [Compound 29, Erythromycin A (E)-9-[0-[2-[6-[(4-phenoxyphenyl)methylamino]hexylamino]ethyl]oxime]] | 1 (≈ 0.932 µM) | 1 (≈ 0.932 µM) | 2 (≈ 1.86 µM) | 0.5 (≈ 0.466 µM) | 0.0078 | 0.0156 | 0.0312 | 0.0039 | 7.65 | 6.1 |  |  | 
CC[C@H]1OC(=O)[C@H](C)[C@@H](O[C@H]2C[C@@](C)(OC)[C@@H](O)[C@H](C)O2)[C@H](C)[C@@H](O[C@@H]2O[C@H](C)C[C@H](N(C)C)[C@H]2O)[C@](C)(O)C[C@@H](C)/C(=N\OCCNCCCCCCNCc2ccc(-c3ccccc3)cc2)[C@H](C)[C@@H](O)[C@]1(C)O [Compound 30, Erythromycin A (E)-9-[0-[2-[6-[(biphenyl-4-yl)methylamino]hexylamino]ethyl]oxime]] | 1 (≈ 0.946 µM) | 1 (≈ 0.946 µM) | 2 (≈ 1.89 µM) | 0.5 (≈ 0.473 µM) | 0.0156 | 0.0156 | 0.0156 | 0.0078 | 19.3 | 19.3 |  |  | 
CC[C@H]1OC(=O)[C@H](C)[C@@H](O[C@H]2C[C@@](C)(OC)[C@@H](O)[C@H](C)O2)[C@H](C)[C@@H](O[C@@H]2O[C@H](C)C[C@H](N(C)C)[C@H]2O)[C@](C)(O)C[C@@H](C)/C(=N\OCCNCCCCCCNCc2ccccc2[N+](=O)[O-])[C@H](C)[C@@H](O)[C@]1(C)O [Compound 33, Erythromycin A (E)-9-[0-[2-[6-[(2-nitrophenyl)methylamino]hexylamino]ethyl]oxime]] | 2 (≈ 1.95 µM) | 4 (≈ 3.9 µM) | 16 (≈ 15.6 µM) | 0.5 (≈ 0.487 µM) | 0.0039 | 0.0039 | 0.0039 | 0.00097 | 1.61 | 6.11 |  |  | 
CC[C@H]1OC(=O)[C@H](C)[C@@H](O[C@H]2C[C@@](C)(OC)[C@@H](O)[C@H](C)O2)[C@H](C)[C@@H](O[C@@H]2O[C@H](C)C[C@H](N(C)C)[C@H]2O)[C@](C)(O)C[C@@H](C)/C(=N\OCCNCCCCCCNCc2cccc([N+](=O)[O-])c2)[C@H](C)[C@@H](O)[C@]1(C)O [Compound 34, Erythromycin A (E)-9-[0-[2-[6-[(3-nitrophenyl)methylamino]hexylamino]ethyl]oxime]] | 1 (≈ 0.974 µM) | 1 (≈ 0.974 µM) | 8 (≈ 7.79 µM) | 0.25 (≈ 0.244 µM) | 0.0019 | 0.0039 | 0.0078 | 0.0039 | 1.88 | 6.8 |  |  | 
CC[C@H]1OC(=O)[C@H](C)[C@@H](O[C@H]2C[C@@](C)(OC)[C@@H](O)[C@H](C)O2)[C@H](C)[C@@H](O[C@@H]2O[C@H](C)C[C@H](N(C)C)[C@H]2O)[C@](C)(O)C[C@@H](C)/C(=N\OCCNCCCCCCNCc2ccc([N+](=O)[O-])cc2)[C@H](C)[C@@H](O)[C@]1(C)O [Compound 35] | 0.5 (≈ 0.487 µM) | 1 (≈ 0.974 µM) | 4 (≈ 3.9 µM) | 0.25 (≈ 0.244 µM) | 0.0039 | 0.0039 | 0.0078 | 0.0019 | 3 | 6 |  |  | 
CC[C@H]1OC(=O)[C@H](C)[C@@H](O[C@H]2C[C@@](C)(OC)[C@@H](O)[C@H](C)O2)[C@H](C)[C@@H](O[C@@H]2O[C@H](C)C[C@H](N(C)C)[C@H]2O)[C@](C)(O)C[C@@H](C)/C(=N\OCCN(C)CCCCCCN(C)Cc2ccccc2)[C@H](C)[C@@H](O)[C@]1(C)O [Compound 38, Erythromycin A (E)-9-[0-[2-[N-methyl-6-(N'-methyl-N'-phenylmethylamino)hexylamino]ethyl]oxime]] | 8 (≈ 7.93 µM) | 8 (≈ 7.93 µM) | 32 (≈ 31.7 µM) | 0.5 (≈ 0.495 µM) | 0.0078 | 0.0039 | 0.0156 | 0.0078 | 11.8 | 11.8 |  |  | 
CC[C@H]1OC(=O)[C@H](C)[C@@H](O[C@H]2C[C@@](C)(OC)[C@@H](O)[C@H](C)O2)[C@H](C)[C@@H](O[C@@H]2O[C@H](C)C[C@H](N(C)C)[C@H]2O)[C@](C)(O)C[C@@H](C)C(=NOCCN(CC)CC)[C@H](C)[C@@H](O)[C@]1(C)O [Erythromycin A 9-[0-[(2-diethylamino)ethyl]oxime]] |  |  |  |  |  |  |  |  |  |  | superior stability to the acids | better pharmacokinetic properties | comparable to that of Erythromycin A
